Results: patent publication US20200079758A1, “[4-(PHENYLSULFONYL)PIPERAZIN-1-YL](1H-1,2,3-TRIAZOL-4-YL)METHANONES” (priority 2016, published 2020)
pIC50: −log10 of the molar value.

Target: T1, recombinant human AKR1C3 (Homo sapiens, UniProt P42330)
T1 construct: GST (cleaved yes); made in house; host or cells: E. coli
T1 sequence (P42330 1-323): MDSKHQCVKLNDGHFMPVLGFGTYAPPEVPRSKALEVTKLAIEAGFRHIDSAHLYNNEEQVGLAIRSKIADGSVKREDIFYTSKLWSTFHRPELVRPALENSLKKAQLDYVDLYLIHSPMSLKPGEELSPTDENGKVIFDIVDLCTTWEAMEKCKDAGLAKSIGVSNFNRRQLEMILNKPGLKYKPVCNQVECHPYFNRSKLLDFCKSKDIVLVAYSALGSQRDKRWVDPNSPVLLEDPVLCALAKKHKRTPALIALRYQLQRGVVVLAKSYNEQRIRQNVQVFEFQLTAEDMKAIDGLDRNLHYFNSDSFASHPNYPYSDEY
Assay: AKR1C3-inhibitory activity assay (generation of Coumberol from Coumberone)
Format: biochemical
Conditions: Coumberone 0.3 μM, NADPH 10 μM, 22° C., typically 90 min, average or median values
Procedure, shortened: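 Recombinant human AKR1C3 (E. coli GST fusion, GST removed; ~1 nM) preincubated 15 min with compound, then NADPH 10 μM and Coumberone 0.3 μM (final), 22 °C, typically 90 min, in 50 mM K-phosphate pH 7. Stopped with EM-1404 (1 μM final); Coumberol fluorescence read at 520 nm (ex 380 nm), normalized to no-inhibitor and no-enzyme controls.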

`COc1ccccc1S(=O)(=O)N1C[C@H](C)N(C(=O)c2cnn[nH]2)C[C@H]1C` [Example 16, {(2S,5R)-4-[(2-methoxyphenyl)sulfonyl]-2,5-dimethylpiperazin-1-yl}(1H-1,2,3-triazol-5-yl)methanone] gave a pIC50 of 8.40.
Work on `COC(=O)c1cccc(S(=O)(=O)N2CCN(C(=O)c3cnn[nH]3)CC2(C)C)c1` [Example 131, methyl 3-{[2,2-dimethyl-4-(1H-1,2,3-triazol-5-ylcarbonyl)piperazin-1-yl]sulfonyl}benzoate] yielded a pIC50 of 6.69.
`CC1(C)CN(C(=O)c2cnn[nH]2)CCN1S(=O)(=O)c1cccc2nonc12` [Example 122, [4-(2,1,3-benzoxadiazol-4-ylsulfonyl)-3,3-dimethylpiperazin-1-yl](1H-1,2,3-triazol-5-yl)methanone] showed a pIC50 of 7.46.
Work on `COc1ccc(C#N)cc1S(=O)(=O)N1CCN(C(=O)c2cnn[nH]2)CC1(C)C` [Example 139, 3-{[2,2-dimethyl-4-(1H-1,2,3-triazol-5-ylcarbonyl)piperazin-1-yl]sulfonyl}-4-methoxybenzonitrile] yielded a pIC50 of 6.55.
`C[C@@H]1CN(S(=O)(=O)c2ccccc2)C[C@H](C)N1C(=O)c1c[nH]nn1` [Example 18, [(2R,6S)-2,6-dimethyl-4-(phenylsulfonyl)piperazin-1-yl](1H-1,2,3-triazol-4-yl)methanone] gave a pIC50 of 7.96.
Work on `CC(=O)Nc1ccc(S(=O)(=O)N2C[C@H](C)N(C(=O)c3cnn[nH]3)C[C@H]2C)cc1` [Example 62, N-(4-{[(2R,5S)-2,5-dimethyl-4-(1H-1,2,3-triazol-5-ylcarbonyl)piperazin-1-yl]sulfonyl}phenyl)acetamide] yielded a pIC50 of 7.06.
`C[C@@H]1CN(C(=O)c2cnn[nH]2)[C@@H](C)CN1S(=O)(=O)c1ccc(Cl)cc1` [Example 63, {(2S,5R)-4-[(4-chlorophenyl)sulfonyl]-2,5-dimethylpiperazin-1-yl}(1H-1,2,3-triazol-5-yl)methanone] was tested, and the pIC50 was 8.52.
With `C[C@@H]1CN(S(=O)(=O)c2ccccc2Br)C[C@H](C)N1C(=O)c1cnn[nH]1` [Example 102, {(2R,6S)-4-[(2-bromophenyl)sulfonyl]-2,6-dimethylpiperazin-1-yl}(1H-1,2,3-triazol-5-yl)methanone] the pIC50 was 9.00.
`C[C@@H]1CN(S(=O)(=O)c2ccc(F)cc2)C[C@H](C)N1C(=O)c1c[nH]nn1` [Example 44, {(2R,6S)-4-[(4-fluorophenyl)sulfonyl]-2,6-dimethylpiperazin-1-yl}(1H-1,2,3-triazol-4-yl)methanone] gave a pIC50 of 7.32.
In the case of `C[C@@H]1CN(C(=O)c2cnn[nH]2)[C@@H](C)CN1S(=O)(=O)Cc1c(F)cccc1F` [Example 88, {(2S,5R)-4-[(2,6-difluorobenzyl)sulfonyl]-2,5-dimethylpiperazin-1-yl}(1H-1,2,3-triazol-5-yl)methanone], the pIC50 was 7.10.
With `C[C@@H]1CN(C(=O)c2c[nH]nn2)[C@@H](C)CN1S(=O)(=O)c1cccnc1` [Example 11, [(2S,5R)-2,5-dimethyl-4-(pyridin-3-ylsulfonyl)piperazin-1-yl](1H-1,2,3-triazol-5-yl)methanone] the pIC50 was 7.11.
`C[C@@H]1CN(C(=O)c2cnn[nH]2)[C@@H](C)CN1S(=O)(=O)c1cccc(S(C)(=O)=O)c1` [Example 81, [(2S,5R)-2,5-dimethyl-4-{[3-(methylsulfonyl)phenyl]sulfonyl}piperazin-1-yl](1H-1,2,3-triazol-5-yl)methanone] showed a pIC50 of 7.49.
With `CC1(C)CN(C(=O)c2c[nH]nn2)CCN1S(=O)(=O)c1cc(Cl)cc(Cl)c1` [Example 26, {4-[(3,5-dichlorophenyl)sulfonyl]-3,3-dimethylpiperazin-1-yl}(1H-1,2,3-triazol-4-yl)methanone] the pIC50 was 8.40.
`C[C@@H]1CN(S(=O)(=O)c2cc(F)cc(F)c2)C[C@H](C)N1C(=O)c1c[nH]nn1` [Example 56, {(2R,6S)-4-[(3,5-difluorophenyl)sulfonyl]-2,6-dimethylpiperazin-1-yl}(1H-1,2,3-triazol-4-yl)methanone] gave a pIC50 of 7.89.
Compound `C[C@@H]1CN(S(=O)(=O)c2ccc(OC(F)(F)F)cc2)C[C@H](C)N1C(=O)c1cnn[nH]1` [Example 101, [(2R,6S)-2,6-dimethyl-4-{[4-(trifluoromethoxy)phenyl]sulfonyl}piperazin-1-yl](1H-1,2,3-triazol-5-yl)methanone] has a pIC50 of 6.40.
Work on `Cc1ccc(C)c(S(=O)(=O)N2C[C@@H](C)N(C(=O)c3cnn[nH]3)[C@@H](C)C2)c1` [Example 99, {(2R,6S)-4-[(2,5-dimethylphenyl)sulfonyl]-2,6-dimethylpiperazin-1-yl}(1H-1,2,3-triazol-5-yl)methanone] yielded a pIC50 of 8.52.
`C[C@@H]1CN(C(=O)c2cnn[nH]2)[C@@H](C)CN1S(=O)(=O)c1cccc(F)c1` [Example 7, sodium 5-({(2S,5R)-4-[(3-fluorophenyl)sulfonyl]-2,5-dimethylpiperazin-1-yl}carbonyl)-1,2,3-triazol-1-ide] showed a pIC50 of 9.00.
Compound `CC1(C)CN(C(=O)c2cnn[nH]2)CCN1S(=O)(=O)c1ccc([N+](=O)[O-])cc1` [Example 111, {3,3-dimethyl-4-[(4-nitrophenyl)sulfonyl]piperazin-1-yl}(1H-1,2,3-triazol-5-yl)methanone] has a pIC50 of 7.05.
Work on `C[C@@H]1CN(C(=O)c2c[nH]nn2)[C@@H](C)CN1S(=O)(=O)c1cccc(S(F)(F)(F)(F)F)c1` [Example 8, [(2S,5R)-2,5-dimethyl-4-{[3-(pentafluoro-λ^6-sulfanyl)phenyl]sulfonyl}piperazin-1-yl](1H-1,2,3-triazol-4-yl)methanone] yielded a pIC50 of 9.00.
In the case of `CC1(C)CN(C(=O)c2cnn[nH]2)CCN1S(=O)(=O)c1cc(F)c(F)cc1F` [Example 128, {3,3-dimethyl-4-[(2,4,5-trifluorophenyl)sulfonyl]piperazin-1-yl}(1H-1,2,3-triazol-5-yl)methanone], the pIC50 was 7.74.
`CC1(C)CN(C(=O)c2cnn[nH]2)CCN1S(=O)(=O)c1ccc(Cl)c(Cl)c1` [Example 116, {4-[(3,4-dichlorophenyl)sulfonyl]-3,3-dimethylpiperazin-1-yl}(1H-1,2,3-triazol-5-yl)methanone] gave a pIC50 of 8.70.
Work on `COc1cc(C)ccc1S(=O)(=O)N1CCN(C(=O)c2cnn[nH]2)CC1(C)C` [Example 133, {4-[(2-methoxy-4-methylphenyl)sulfonyl]-3,3-dimethylpiperazin-1-yl}(1H-1,2,3-triazol-5-yl)methanone] yielded a pIC50 of 7.80.
Compound `CC1(C)CN(C(=O)c2cnn[nH]2)CCN1S(=O)(=O)c1ccc(F)c(F)c1` [Example 36, {4-[(3,4-difluorophenyl)sulfonyl]-3,3-dimethylpiperazin-1-yl}(1H-1,2,3-triazol-5-yl)methanone] has a pIC50 of 7.59.
`C[C@@H]1CN(C(=O)c2cnn[nH]2)[C@@H](C)CN1S(=O)(=O)c1ccc(OC(F)(F)F)cc1` [Example 71, [(2S,5R)-2,5-dimethyl-4-{[4-(trifluoromethoxy)phenyl]sulfonyl}piperazin-1-yl](1H-1,2,3-triazol-5-yl)methanone] gave a pIC50 of 7.66.
In the case of `C[C@@H]1CN(S(=O)(=O)c2cccc3ccccc23)C[C@H](C)N1C(=O)c1cnn[nH]1` [Example 96, [(2R,6S)-2,6-dimethyl-4-(naphthalen-1-ylsulfonyl)piperazin-1-yl](1H-1,2,3-triazol-5-yl)methanone], the pIC50 was 8.70.
For `CC1(C)CN(C(=O)c2cnn[nH]2)CCN1S(=O)(=O)c1ccccc1Cl` [Example 32, {4-[(2-chlorophenyl)sulfonyl]-3,3-dimethylpiperazin-1-yl}(1H-1,2,3-triazol-5-yl)methanone], the pIC50 was 7.82.
